According to patent US20080108706A1, “Chemical resection of pancreas” (priority 1999, published 2008):
“Also recorded” adds a separate entry of the source.

Columns and labels:
[1] = system: human pancreatic cell carcinoma line PANC-1; assay: IC50 assays in PANC-1 cells; type: cell-based
Description: (OH)2DEHSPM was tested in a series of IC50 assays in the human pancreatic cell carcinoma line PANC-1 (doubling time 36 hr.).

[2] = system: acinar-derived cell line AR42J; assay: Growth of AR42J cells, IC50 assays; type: cell-based
Description: (OH)2 DEHSPM was also tested in the acinar-derived cell line AR42J.

[3] = Beagle study Part A: long-term toxicity and pancreatic function after (R,R)-(HO)2DEHSPM; type: in vivo, beagles; details: for SGPT / alkaline phosphatase: approximately 60-days post-drug
Description: (§1) Five male beagles approximately 6-8 months of age were obtained from Harlan Sprague Dawley. They were provided with food and water ad libitum and were allowed to acclimate to their new surroundings for two weeks. The animals were weighed prior to starting drug administration and were weighed once per week during the drug dosing period. A CBC and chemistry panel were performed every 1-2 weeks. The drug study was performed in two stages. In the first phase, three animals were given the drug at 2.15 mg/kg/day (dogs #516, 518 and 526). In the second phase, the other two dogs were given the drug at 4.3 mg/kg/day (dogs #490 and 494). In both experiments, the daily drug dose was divided and administered twice daily at 12-hour intervals.
(§2) The results of the long-term washout and subsequent toxicity of the (R,R)—(HO)2DEHSPM are summarized. Briefly, the drug was initially thought to be well tolerated at the 2.15 mg/kg/day dose. In order to compare the long-term washout of the (HO)2DEHSPM as compared to DEHSPM, it was decided not to sacrifice the animal (#516) until 75-days post-drug. […] Chronic pancreatitis or intestinal malabsorption was suspected. […] Inasmuch as the dog was imminently scheduled for sacrifice, no treatment was initiated. At necropsy 75-days post-drug, there was little, if any, abdominal fat and the animal's pancreas was atrophied as described below.
(§3) However, approximately 55-60 days post-drug, it was noted that although the dogs in the 4.3 mg/kg/day group (#490 and 494) were eating well and were bright, alert and responsive, they began losing weight (2 kg). […] In order to further confirm the exocrine pancreatic insufficiency, additional experiments were performed.
(§4) The two dogs (#490 and 494) were fed a prescription canned and dry dog food and were supplemented with Viokase, a pancreatic enzyme preparation, by mixing three tablets with food or by oral administration immediately before each feeding. The dogs were maintained on this regimen for approximately three weeks. During this time, their weight and blood chemistries were closely monitored. The Viokase supplementation was then stopped and the same parameters were again evaluated. One week after the Viokase administration had ceased, the animals were euthanized and tissues were taken for histology and for the determination of tissue polyamine levels.

exocrine pancreas [4] = assay: as above; type: in vivo, beagles
Description: as §1, §2, §3, §4

exocrine pancreas [5] = assay: Beagle study Part B: comparison of (R,R)- v. (S,S)-(HO)2DEHSPM; type: in vivo, beagles
Excerpt: As the pancreatic insufficiency side-effect that was observed after the administration of the (R,R)—(HO)2DEHSPM to the beagles may have been related to the (R,R)-chirality of the molecule, the (S,S)-enantiomer was synthesized and was compared in a head-to-head fashion with the (R,R)-enantiomer. To perform this experiment, five male beagles approximately 6-8 months of age were obtained from Harlan Sprague Dawley. There were provided with food and water ad libitum and were allowed to acclimate to their new surroundings for two weeks. The animals were weighed prior to starting drug administration and were weighed once per week during the drug dosing period. A CBC and chemistry panel and a Holter monitor were performed once per week. In addition to the usual tests, additional pancreatic function-specific tests were also performed. These additional evaluations included a fecal trypsin test, examination of the feces for fecal fat and serum trypsin-like immunoreactivity determinations. It was hoped that these signs of pancreatic insufficiency would only appear in the animals given the (R,R)-enantiomer and would not be observed in the dogs that were given the (S,S)-molecule. The pancreatic insufficiency may not become evident until approximately 7-8 weeks post-drug. At the conclusion of the experiment, all of the animals were sacrificed and the histology and tissue polyamine levels were determined.
Five male beagles approximately 6-8 months of age were obtained from Harlan Sprague Dawley. They were provided with food and water ad libitum and were allowed to acclimate to their new surroundings for two weeks. Once two sets of baseline data were obtained, the animals were randomly divided into three groups: two of the dogs (#468 and 500) received the (R,R)—(HO)2DEHSPM; two of the animals (#440 and 476) were given (S,S)—(HO)2DEHSPM; and one dog (#452) served as an untreated (saline only) control. The dogs were given the (R,R)—or (S,S)—(HO)2DEHSPM at a dose of 4.3 mg/kg/day subcutaneously in divided doses, 2.15 mg/kg BID.
The animals were weighed weekly during the acclimation period, the drug dosing period and throughout the post-drug observational period. A CBC, chemistry panel and pancreatic function tests (trypsin-like immunoreactivity, fecal trypsin, fecal fat, etc.) were performed once per week. Additional tests, e.g., glucose tolerance and fat absorption, were performed as necessary. The dogs were Holter monitored twice during the acclimation period and then weekly during drug dosing.

[6] = dog #516, 2.15 mg/kg/day, approximately two months post-drug
[7] = dogs #490 and 494, 4.3 mg/kg/day, approximately 55-60 days post-drug
[8] = 4.3 mg/kg/day sc for 13 days, post-drug
[9] = approximately five weeks post-drug, 4.3 mg/kg/day sc for 13 days
[10] = dog #468, 4.3 mg/kg/day sc for 13 days
[11] = dog #500, 4.3 mg/kg/day sc for 13 days

CCNCC[C@@H](O)CNCCCCNC[C@H](O)CCNCC.Cl.Cl.Cl.Cl [(R,R)-(HO)2DEHSPM, N^1,N^14-Diethyl-3(R) 12(R)-dihydroxyhomospermine tetrahydrochloride]
IC50 ([1]; time point 96 hr.): > 100 µM | IC50 ([1]; time point 144 hr.): 0.5 µM | IC50 ([1]; time point 240 hr.): 0.12 µM | IC50 ([2]; treatment period 4 days (= 1.33 doublings)): 90 µM | IC50 ([2]; treatment period 6 days (= 2 doublings)): 1.2 µM | IC50 ([2]; treatment period 12 days (= 4 doublings)): 0.09 µM | SGPT ([3]; dog #490, 4.3 mg/kg/day): 1108 U/L | alkaline phosphatase ([3]; dog #490, 4.3 mg/kg/day): 542 U/L | SGPT ([3]; dog #494, 4.3 mg/kg/day): 776 U/L | alkaline phosphatase ([3]; dog #494, 4.3 mg/kg/day): 436 U/L | SGPT (routine chemistry panel) [3, 6]: elevated | SGPT (blood chemistries) [3, 7]: elevated | pancreas at necropsy (exocrine pancreas [4]; 75-, 78-, 88- and 92-days post-treatment, all cases): Severe atrophy | histopathology of pancreatic sample (exocrine pancreas [4]; 75-days post-treatment sample): moderate to severe pancreatitis | trypsin-like immunoreactivity (TLI) (exocrine pancreas [4]; both dogs #490 and 494, 4.3 mg/kg/day, throughout Viokase and post-Viokase periods): below 2.0 ng/ml | serum trypsin-like immunoreactivity test (exocrine pancreas [4]; dog #516, 2.15 mg/kg/day): confirmed the presence of exocrine pancreatic insufficiency | pancreas at necropsy (exocrine pancreas [4]; dog #516, 2.15 mg/kg/day, 75-days post-drug): atrophied | body weight (exocrine pancreas [4]; [6]): begun losing weight | fecal check (fat in stool) (exocrine pancreas [4]; [6]): large amount of fat | qualitative fecal fat and trypsin-like immunoreactivity (exocrine pancreas [4]; dogs #490 and 494, 4.3 mg/kg/day): confirmed the presence of exocrine pancreatic insufficiency | weight loss (exocrine pancreas [4]; [7]): 2 kg | pancreas at necropsy (exocrine pancreas [4]; dogs #490 and 494, 4.3 mg/kg/day, one week after Viokase ceased): severely atrophied | glucose levels (endocrine functionality) (exocrine pancreas [4]; dogs #490 and 494, 4.3 mg/kg/day, throughout the experiment): normal | histopathology of pancreas at necropsy (exocrine pancreas [5]; 4.3 mg/kg/day sc for 13 days, 52- to 64-days post-drug): moderate to severe atrophy of the exocrine pancreases | alopecia (exocrine pancreas [5]; [8]): also noted | diagnosis from pancreatic function tests (exocrine pancreas [5]; [8]): confirmed a diagnosis of exocrine pancreatic insufficiency | glucose tolerance test (endocrine pancreas) (exocrine pancreas [5]; [8]): “normal” response | post-feeding serum samples after a fatty meal (exocrine pancreas [5]; [8]): clear, indicating an inability to digest fats | clinical course (exocrine pancreas [5]; 4.3 mg/kg/day sc for 13 days, until euthanasia 52- to 64-days post-drug): continued to deteriorate | histology of pancreatic tissue samples (exocrine pancreas [5]; 10-days post-drug): no histological abnormalities | TLI (exocrine pancreas [5]; [9]): began to decrease | fecal trypsin test results (exocrine pancreas [5]; [9]): abnormal | body weight (exocrine pancreas [5]; approximately five weeks post-drug, 4.3 mg/kg/day sc for 13 days, both dogs of group): began losing weight very rapidly | frank and/or occult blood in stool, found until (exocrine pancreas [5]; [10]): about 17 days post-drug | loss of body weight at end of drug dosing period (exocrine pancreas [5]; [10]): 1.4 kg | clinical signs (exocrine pancreas [5]; dog #468, day thirteen of drug administration, 4.3 mg/kg/day sc, 4.3 mg/kg/day): bloody diarrhea and anorexia; also recorded: developed bloody diarrhea and stopped eating | blood glucose level in glucose tolerance test (exocrine pancreas [5]; dog #468, returned to normal during the 3.5 hours): exceeded 160 mg/dl | clinical signs (exocrine pancreas [5]; [11]): developed bloody diarrhea one-day post-drug | gain of body weight at end of drug dosing period (exocrine pancreas [5]; [11]): 0.4 kg | pancreas at necropsy, gross appearance (exocrine pancreas [5]; dogs #468 and 500, 52- and 58-days post-drug): greatly atrophied (about one-fourth the control weight)
